Experiment [1] has as its target human Arginine Vasopressin Receptor 1b (AVPR1b) (Homo sapiens (Human), UniProt P47901). In words: Vasopressin V1B receptor antagonist assay (AVP-evoked calcium, FLIPR, CHO-AVPR1b cells). The format is cell-based. As to the method: The purpose of the assay is to determine the inhibitory effect of synthesized compounds on the Vasopressin V1b receptor. The assay was performed in Chinese Hamster Ovary (CHO) cells expressing the human Arginine Vasopressin Receptor 1b (AVPR1b). Arginine Vasopressin (AVP) evokes an increase in intracellular calcium in CHO-AVPR1b cells which is measured in a fluorescence assay on the FLIPR^TETRA using calcium sensitive dyes. Test compounds were assessed for their ability to affect the magnitude of the response to AVP, with antagonists showing a concentration-dependent reduction in the AVP-mediated fluorescence.
CHO-AVPR1b cells were maintained in routine culture in T175 Flasks at 37° C., 5% CO2. The growth medium consisted of Ham's F12 media supplemented with 10% v/v fetal bovine serum, 1× non-essential amino acids, and 0.4 mg/ml Geneticin G418.
Cells were harvested from T175 flasks when they were 80-90% confluent by first washing the cell monolayer with PBS and then dissociated using trypsin 0.05%/EDTA (3 mL for a T175 Flask). The flasks were incubated at room temperature until the cells detached. To the cell suspension, 10 ml of growth media was added and the cell density determined using the Vi-Cell automated cell counter. The cells were spun at 1000 rpm for 3 minutes, then the supernatant was carefully removed and discarded. The cell pellet was re-suspended at 6.0e^5 cells/ml in growth media. 25 μL of cells in growth media was dispensed into each well (15,000 cells per well) of a poly-D-lysine coated black, clear bottomed, 384-well plate. The plates were incubated at 37° C., 5% CO2 overnight.
At the start of each assay day, the potency of AVP is assessed and an EC80 concentration determined for subsequent compound profiling. Assays were performed using a two-step addition protocol on the FLIPR^TETRA; first addition of 5 μl of control or test compound at 10× final in assay buffer with 15 min incubation at 37° C., 5% CO2 followed by 10 μl of AVP at 6× final concentration in assay buffer. Changes in fluorescence were monitored for 3 min after both additions on the FLIPR^TETRA using 470-495 nm excitation and 515-575 nm emission wavelengths. The assay buffer consisted of HBSS (+Ca/+Mg) supplemented with 20 mM HEPES, and for the preparation of the AVP agonist only, 0.1% w/v bovine serum albumin. The assay was initiated by the removal of growth media from the cells and replacement with 45 μl of Calcium-6 dye (Molecular Devices) prepared at 1× in assay buffer. Cells were loaded with dye for 60-90 min at 37° C., 5% CO2 before initiation of the FLIPR^TETRA protocol. […] For compound profiling, test compounds were first serially diluted in DMSO (10-point curve, 1:3 dilutions) then diluted 33.3-fold in assay buffer prior to addition to the dye loaded cells on the FLIPR^TETRA. At the end of the incubation period 10 μl of AVP in assay buffer containing 0.1% BSA was added at the previously determined EC80 concentration.
In-plate controls for the assay include a Nelivaptan concentration-response curve as the reference V1b antagonist and an AVP concentration-response curve to confirm the reproducibility of the EC80 used for the compound challenge.

For experiment [2], the target named is human Arginine Vasopressin Receptor V2 (AVPR2) (Homo sapiens (Human), UniProt P30518). In words: Vasopressin V2 receptor antagonist assay (cAMP TR-FRET, 1321N1 cells). The class given is cell-based. A general note: TR-FRET usually uses a lanthanide donor and a delayed reading to cut background.

Structures are written as SMILES.

Sequence of human Arginine Vasopressin Receptor V2 (AVPR2) (P30518 whole entry): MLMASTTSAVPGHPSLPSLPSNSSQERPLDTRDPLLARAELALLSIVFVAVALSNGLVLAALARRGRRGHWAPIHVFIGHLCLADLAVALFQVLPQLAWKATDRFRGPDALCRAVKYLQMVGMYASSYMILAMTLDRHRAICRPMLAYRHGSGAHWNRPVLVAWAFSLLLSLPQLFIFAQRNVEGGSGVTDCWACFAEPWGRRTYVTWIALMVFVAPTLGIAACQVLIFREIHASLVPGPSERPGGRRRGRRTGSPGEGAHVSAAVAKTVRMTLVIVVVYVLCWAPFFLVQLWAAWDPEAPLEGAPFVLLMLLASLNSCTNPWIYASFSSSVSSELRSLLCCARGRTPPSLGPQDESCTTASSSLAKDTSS
Sequence of human Arginine Vasopressin Receptor 1b (AVPR1b) (P47901 whole entry): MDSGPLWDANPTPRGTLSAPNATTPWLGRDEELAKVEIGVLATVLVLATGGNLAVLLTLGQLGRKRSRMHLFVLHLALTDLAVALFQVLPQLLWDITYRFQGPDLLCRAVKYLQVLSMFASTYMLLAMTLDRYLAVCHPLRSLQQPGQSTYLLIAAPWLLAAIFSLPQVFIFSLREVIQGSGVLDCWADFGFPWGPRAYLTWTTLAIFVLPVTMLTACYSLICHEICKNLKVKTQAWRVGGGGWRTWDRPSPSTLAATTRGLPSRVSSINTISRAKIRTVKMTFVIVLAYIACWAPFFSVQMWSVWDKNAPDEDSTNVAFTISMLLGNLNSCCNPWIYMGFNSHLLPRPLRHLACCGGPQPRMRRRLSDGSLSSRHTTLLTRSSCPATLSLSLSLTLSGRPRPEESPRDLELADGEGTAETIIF

For `Fc1ccc(N2CC3(CC(c4nnc5n4-c4ccc(Cl)cc4CN(C4CCC4)C5)C3)C2)nc1` [compound 42], the values for the half-inhibitory concentration (IC50) in experiment [1] and in experiment [2] were greater than 1 µM and less than 0.1 µM, respectively.
The corresponding values for `CCN1Cc2cc(Cl)ccc2-n2c(nnc2C2CC3(C2)CN(c2ccccn2)C3)C1` [compound 45] are greater than 1 µM and 0.1 to 0.5 µM.
For the molecule `CCN1Cc2cc(Cl)ccc2-n2c(nnc2C2CC3(C2)CN(c2cnccn2)C3)C1` [compound 46], the IC50 in experiment [1] and in experiment [2] was greater than 1 µM in each case.
Regarding `CC(C)N1Cc2cc(Cl)ccc2-n2c(nnc2C2CC3(C2)CN(c2cnccn2)C3)C1` [compound 47], the IC50 in experiment [1] and in experiment [2] was greater than 1 µM in each case.
With `CC(C)N1Cc2cc(Cl)ccc2-n2c(nnc2C2CC3(C2)CN(c2ccccn2)C3)C1` [compound 48], the IC50 in experiment [1] was greater than 1 µM; in experiment [2], 0.5 to 1 µM.
In the case of `CCN1Cc2cc(Cl)ccc2-n2c(nnc2C2CC3(C2)CN(c2ccc(F)cn2)C3)C1` [compound 49], the IC50 is greater than 1 µM in experiment [1] and 0.1 to 0.5 µM in experiment [2].
The corresponding values for `CC(C)N1Cc2cc(Cl)ccc2-n2c(nnc2C2CC3(C2)CN(c2ccc(F)cn2)C3)C1` [compound 50] are greater than 1 µM and 0.1 to 0.5 µM.
The corresponding values for `FC(F)CN1Cc2cc(Cl)ccc2-n2c(nnc2C2CC3(C2)CN(c2ccccn2)C3)C1` [compound 52] are greater than 1 µM and 0.1 to 0.5 µM.
The corresponding values for `CC(C)N1Cc2cc(Cl)ccc2-n2c(nnc2C2CC3(C2)CN(c2ncccc2F)C3)C1` [compound 54] are greater than 1 µM and 0.5 to 1 µM.
On to `Clc1ccc2c(c1)CN(C1CC1)Cc1nnc(C3CC4(C3)CN(c3ccccn3)C4)n1-2` [compound 56], for which the IC50 in experiment [1] is greater than 1 µM; in experiment [2], 0.1 to 0.5 µM.
The corresponding values for `Clc1ccc2c(c1)CN(C1COC1)Cc1nnc(C3CC4(C3)CN(c3ccccn3)C4)n1-2` [compound 57, 8-chloro-5-(oxetan-3-yl)-1-(2-(pyridin-2-yl)-2-azaspiro[3.3]heptan-6-yl)-5,6-dihydro-4H-benzo[f][1,2,4]triazolo[4,3-a][1,4]diazepine] are greater than 1 µM and greater than 1 µM.
`CC(CF)N1Cc2cc(Cl)ccc2-n2c(nnc2C2CC3(C2)CN(c2ccccn2)C3)C1` (centres unmarked) [compound 58]: the IC50 was greater than 1 µM in experiment [1] and 0.5 to 1 µM in experiment [2].
Turning to `FCCN1Cc2cc(Cl)ccc2-n2c(nnc2C2CC3(C2)CN(c2ccccn2)C3)C1` [compound 59], the IC50 is greater than 1 µM in experiment [1] and 0.5 to 1 µM in experiment [2].
On to `COC(=O)N1Cc2cc(Cl)ccc2-n2c(nnc2C2CC3(C2)CN(c2ccc(F)cn2)C3)C1` [compound 61], for which the IC50 is greater than 1 µM in experiment [1] and 0.1 to 0.5 µM in experiment [2].
`CC(C)C(=O)N1Cc2cc(Cl)ccc2-n2c(nnc2C2CC3(C2)CN(c2ccc(F)cn2)C3)C1` [compound 63]: the IC50 in experiment [1] is greater than 1 µM; in experiment [2] it was 0.5 to 1 µM.
For the molecule `CC(=O)N1Cc2cc(Cl)ccc2-n2c(nnc2C2CC3(C2)CN(c2ccc(F)cn2)C3)C1` [compound 64], the results for the IC50 in experiment [1] and in experiment [2] were greater than 1 µM and 0.1 to 0.5 µM, respectively.
For `CCC(=O)N1Cc2cc(Cl)ccc2-n2c(nnc2C2CC3(C2)CN(c2ccccn2)C3)C1` [compound 67], the IC50 in experiment [1] and in experiment [2] was greater than 1 µM throughout.
In the case of `CCOC(=O)N1Cc2cc(Cl)ccc2-n2c(nnc2C2CC3(C2)CN(c2ccc(F)cn2)C3)C1` [compound 69], the half-maximal inhibitory concentration (IC50) is greater than 1 µM in experiment [1] and 0.1 to 0.5 µM in experiment [2].
The corresponding values for `COC(=O)N1Cc2cc(Cl)ccc2-n2c(nnc2C2CC3(C2)CN(c2ccccn2)C3)C1` [compound 70] are greater than 1 µM and 0.1 to 0.5 µM.
With `CC(C)C(=O)N1Cc2cc(Cl)ccc2-n2c(nnc2C2CC3(C2)CN(c2ccccn2)C3)C1` [compound 71], the IC50 in experiment [1] and in experiment [2] was greater than 1 µM in each case.
Turning to `CCC(=O)N1Cc2cc(Cl)ccc2-n2c(nnc2C2CC3(C2)CN(c2ccc(F)cn2)C3)C1` [compound 72], the concentration for half-maximal inhibition (IC50) in experiment [1] is greater than 1 µM; in experiment [2], 0.1 to 0.5 µM.
The corresponding values for `CC(CF)OC(=O)N1Cc2cc(Cl)ccc2-n2c(nnc2C2CC3(C2)CN(c2ccc(F)cn2)C3)C1` (centres unmarked) [compound 78] are greater than 1 µM and 0.1 to 0.5 µM.
The corresponding values for `O=C(OC(CF)CF)N1Cc2cc(Cl)ccc2-n2c(nnc2C2CC3(C2)CN(c2ccc(F)cn2)C3)C1` [compound 79] are greater than 1 µM and 0.5 to 1 µM.
The corresponding values for `O=C(N1Cc2cc(Cl)ccc2-n2c(nnc2C2CC3(C2)CN(c2cnccn2)C3)C1)C1(F)CC1` [compound 81] are greater than 1 µM and greater than 1 µM.
With `O=C(OC1CC1)N1Cc2cc(Cl)ccc2-n2c(nnc2C2CC3(C2)CN(c2ccc(F)cn2)C3)C1` [compound 90], the IC50 in experiment [1] and in experiment [2] was greater than 1 µM in each case.
As for `O=C(N1Cc2cc(Cl)ccc2-c2c(C3CC4(C3)CN(c3cccnn3)C4)noc2C1)C(F)(F)F` [compound 105], the IC50 in experiment [1] and in experiment [2] was greater than 1 µM throughout.
With `O=C(C(F)F)N1Cc2cc(Cl)ccc2-n2c(nnc2C2CC3(C2)CN(c2ccccn2)C3)C1` [compound 122], the half-maximal inhibitory concentration (IC50) in experiment [1] is greater than 1 µM; in experiment [2], 0.1 to 0.5 µM.
The corresponding values for `O=C(C(F)F)N1Cc2cc(Cl)ccc2-n2c(nnc2C2CC3(C2)CN(C(=O)C2(F)CC2)C3)C1` [compound 134] are greater than 1 µM and greater than 1 µM.
For `O=C(C1CC1)N1CC2(CC(c3nnc4n3-c3ccc(Cl)cc3CN(C(=O)C3(F)CC3)C4)C2)C1` [compound 136], the half-maximal inhibitory concentration (IC50) in experiment [1] and in experiment [2] was greater than 1 µM throughout.
`COC(=O)N1Cc2cc(Cl)ccc2-n2c(C3CC4(C3)CN(c3ccc(F)cn3)C4)nnc2C1C` (centres unmarked) [compound 142, methyl 8-chloro-1-(2-(5-fluoropyridin-2-yl)-2-azaspiro[3.3]heptan-6-yl)-4-methyl-4H-benzo[f][1,2,4]triazolo[4,3-a][1,4]diazepine-5(6H)-carboxylate]: the IC50 in experiment [1] and in experiment [2] was greater than 1 µM throughout.
For `CC(C)OC(=O)N1Cc2cc(Cl)ccc2-n2c(nnc2C2CC3(C2)CN(C(=O)C2CC2)C3)C1` [compound 153], the IC50 in experiment [1] and in experiment [2] was greater than 1 µM throughout.
As for `CC(C)OC(=O)N1Cc2cc(Cl)ccc2-n2c(C3CC4(C3)CN(c3cnccn3)C4)nnc2C1C` (centres unmarked) [compound 164], the IC50 in experiment [1] and in experiment [2] was greater than 1 µM each time.
Turning to `COC(=O)N1Cc2cc(Cl)ccc2-n2c(C3CC4(C3)CN(c3cnccn3)C4)nnc2C1C` (centres unmarked) [compound 165], the IC50 in experiment [1] and in experiment [2] was greater than 1 µM throughout.
Take `COC(=O)N1Cc2cc(Cl)ccc2-n2c(C3CC4(C3)CN(c3ncccn3)C4)nnc2C1C` (centres unmarked) [compound 166]: the IC50 in experiment [1] and in experiment [2] was greater than 1 µM each time.
Take `CC(C)OC(=O)N1Cc2cc(Cl)ccc2-n2c(C3CC4(C3)CN(c3ncccn3)C4)nnc2C1C` (centres unmarked) [compound 167]: the half-inhibitory concentration (IC50) in experiment [1] and in experiment [2] was greater than 1 µM throughout.
For the molecule `CCOC(=O)N1Cc2cc(Cl)ccc2-n2c(C3CC4(C3)CN(c3ncccn3)C4)nnc2C1C` (centres unmarked) [compound 168], the IC50 in experiment [1] and in experiment [2] was greater than 1 µM each time.
In the case of `CCOC(=O)N1Cc2cc(Cl)ccc2-n2c(C3CC4(C3)CN(c3ccc(F)cn3)C4)nnc2C1C` (centres unmarked) [compound 169], the IC50 in experiment [1] and in experiment [2] was greater than 1 µM in each case.
In the case of `COC(=O)N1Cc2cc(Cl)ccc2-n2c(C3CC4(C3)CN(c3ncc(F)cn3)C4)nnc2C1C` (centres unmarked) [compound 170], the IC50 in experiment [1] and in experiment [2] was greater than 1 µM in each case.
Consider `CC1c2nnc(C3CC4(C3)CN(c3ncccn3)C4)n2-c2ccc(Cl)cc2CN1C(=O)OC1CC1` (centres unmarked) [compound 171], for which the IC50 in experiment [1] and in experiment [2] was greater than 1 µM each time.
Consider `CCOC(=O)N1Cc2cc(Cl)ccc2-n2c(C3CC4(C3)CN(c3ncc(F)cn3)C4)nnc2C1C` (centres unmarked) [compound 172], for which the IC50 in experiment [1] and in experiment [2] was greater than 1 µM in each case.

Broadly, the IC50 is the concentration needed to halve the response being measured.

Source of the values: US11186577B2, “Vasopressin receptor antagonists and products and methods related thereto” (BlackThorn Therapeutics, Inc., priority 2017, dated 2021).
